HELM strings list units from the 5' end as sugar, base in round brackets, then linkage (d deoxyribose, r ribose, m 2'-O-methyl, p phosphodiester). Strings are as the collection lists them, not checked against the first reports. ss, as = sense and antisense strand; [lna] = locked nucleic acid (LNA); [hna] = hexitol nucleic acid; [s4r] = 4'-thioribose; [fl2r] = 2'-fluoro
Note: test system not given here.

The conditions of the series: siRNA.
For the substance “RNA1{r(C)p.r(C)p.r(C)p.r(C)p.m(A)p.m(G)p.m(G)p.m(U)p.m(A)p.m(A)p.m(C)p.r(G)p.r(A)p.r(U)p.r(U)p.r(U)p.r(U)p.r(C)p.r(U)p.r(T)p.r(T)}|RNA2{r(A)p.r(G)p.r(A)p.r(A)p.r(A)p.r(A)p.r(U)p.r(C)p.r(G)p.r(U)p.r(U)p.r(A)p.r(C)p.r(C)p.r(U)p.r(G)p.r(G)p.r(G)p.r(G)p.r(T)p.r(T)}$$$RNA1{StrandType:ss}|RNA2{StrandType:as}$”, the target mRNA knockdown stood at 79%.
For “RNA1{r(G)p.r(C)p.r(G)p.r(A)p.r(G)p.r(C)p.r(A)p.r(G)p.r(A)p.r(G)p.r(A)p.r(A)p.r(U)p.r(C)p.m(U)p.r(A)p.r(C)p.r(C)p.r(U)p.r(T)p.r(T)}|RNA2{r(A)p.r(G)p.r(G)p.m(U)p.r(A)p.r(G)p.r(A)p.r(U)p.r(U)p.r(C)p.r(U)p.r(C)p.r(U)p.r(G)p.r(C)p.r(U)p.r(C)p.r(G)p.r(C)p.r(T)p.r(T)}$$$RNA1{StrandType:ss}|RNA2{StrandType:as}$”, the target mRNA knockdown was 90%.
Consider “RNA1{[fl2r](G)p.r(C)p.[fl2r](U)p.r(A)p.[fl2r](C)p.r(C)p.[fl2r](G)p.r(C)p.[fl2r](A)p.r(A)p.[fl2r](C)p.r(C)p.[fl2r](A)p.r(C)p.[fl2r](G)p.r(A)p.[fl2r](G)p.r(C)p.[fl2r](U)p.r(T)p.r(T)}|RNA2{r(A)p.r(G)p.r(C)p.r(U)p.r(C)p.r(G)p.r(U)p.r(G)p.r(G)p.r(U)p.r(U)p.r(G)p.r(C)p.r(G)p.r(G)p.r(U)p.r(A)p.r(G)p.r(C)p.r(T)p.r(T)}$$$RNA1{StrandType:ss}|RNA2{StrandType:as}$”, for which the target mRNA knockdown is 21%.
The result for “RNA1{r(A)p.r(U)p.r(C)p.r(U)p.r(G)p.r(A)p.r(A)p.r(G)p.r(A)p.r(A)p.r(G)p.r(G)p.r(A)p.r(G)p.r(A)p.r(A)p.r(A)p.r(A)p.r(A)p.[lna](T)p.[lna](T)}|RNA2{r(U)p.r(U)p.r(U)p.r(U)p.r(U)p.r(C)p.r(U)p.r(C)p.r(C)p.r(U)p.r(U)p.r(C)p.r(U)p.r(U)p.r(C)p.r(A)p.r(G)p.r(A)p.r(U)p.[lna](T)p.[lna](T)}$$$RNA1{StrandType:ss}|RNA2{StrandType:as}$” reads 93%.
The result for “RNA1{m(U)p.r(C)p.m(U)p.r(C)p.m(G)p.r(U)p.m(A)p.r(A)p.m(G)p.r(G)p.m(A)p.r(C)p.m(G)p.r(A)p.m(A)p.r(A)p.m(C)p.r(G)p.r(A)p.r(T)p.r(T)}|RNA2{r(U)p.r(C)p.r(G)p.r(U)p.r(U)p.r(U)p.r(C)p.r(G)p.r(U)p.r(C)p.r(C)p.r(U)p.r(U)p.r(A)p.r(C)p.r(G)p.r(A)p.r(G)p.r(A)p.r(T)p.r(T)}$$$RNA1{StrandType:ss}|RNA2{StrandType:as}$” reads 34%.
The result for “RNA1{m(A)p.r(U)p.m(C)p.r(A)p.m(C)p.r(A)p.m(A)p.r(A)p.m(C)p.r(C)p.m(C)p.r(C)p.m(U)p.r(A)p.m(G)p.r(A)p.m(G)p.r(G)p.m(G)p.r(T)p.r(T)}|RNA2{r(C)p.r(C)p.r(C)p.r(U)p.r(C)p.r(U)p.r(A)p.r(G)p.r(G)p.r(G)p.r(G)p.r(U)p.r(U)p.r(U)p.r(G)p.r(U)p.r(G)p.r(A)p.r(U)p.r(T)p.r(T)}$$$RNA1{StrandType:ss}|RNA2{StrandType:as}$” reads 9%.
As to “RNA1{r(G)p.r(A)p.r(C)p.r(G)p.[hna](U)p.r(A)p.r(A)p.[hna](A)p.r(C)p.r(G)p.[hna](G)p.r(C)p.r(C)p.[hna](A)p.r(C)p.r(A)p.r(A)p.r(G)p.r(U)p.[hna](U)p.d(T)}|RNA2{r(A)p.m(C)p.r(U)p.r(U)p.r(G)p.r(U)p.r(G)p.r(G)p.r(C)p.r(C)p.r(G)p.r(U)p.r(U)p.r(U)p.r(A)p.r(C)p.r(G)p.r(U)p.r(C)p.r(G)p.r(C)}$$$RNA1{StrandType:ss}|RNA2{StrandType:as}$”, the target mRNA knockdown amounted to 38%.
Substance “RNA1{r(G)p.r(A)p.r(A)p.r(G)p.r(G)p.r(G)p.r(G)p.r(A)p.r(A)p.r(A)p.r(U)p.m(C)p.r(U)p.r(G)p.r(U)p.r(G)p.r(G)p.r(U)p.r(U)p.r(T)p.r(T)}|RNA2{r(A)p.r(A)p.r(C)p.m(C)p.r(A)p.r(C)p.r(A)p.r(G)p.r(A)p.r(U)p.r(U)p.r(U)p.r(C)p.r(C)p.r(C)p.r(C)p.r(U)p.r(U)p.r(C)p.r(T)p.r(T)}$$$RNA1{StrandType:ss}|RNA2{StrandType:as}$” came in with a target mRNA knockdown of 65%.
The result for “RNA1{r(G)p.r(G)p.r(G)p.r(G)p.r(C)p.r(U)p.r(C)p.r(U)p.r(U)p.r(C)p.r(U)p.m(A)p.r(C)p.r(A)p.r(U)p.r(U)p.r(C)p.r(C)p.r(C)p.r(T)p.r(T)}|RNA2{r(G)p.r(G)p.r(G)p.r(A)p.r(A)p.r(U)p.r(G)p.m(U)p.r(A)p.r(G)p.r(A)p.r(A)p.r(G)p.r(A)p.r(G)p.r(C)p.r(C)p.r(C)p.r(C)p.r(T)p.r(T)}$$$RNA1{StrandType:ss}|RNA2{StrandType:as}$” reads 72%; that for “RNA1{m(A)p.r(G)p.r(C)p.r(U)p.r(C)p.r(U)p.r(U)p.r(U)p.r(G)p.r(U)p.r(C)p.m(A)p.r(C)p.r(C)p.r(U)p.r(C)p.r(U)p.r(C)p.r(U)p.r(T)p.r(T)}|RNA2{m(A)p.r(G)p.m(A)p.r(G)p.m(A)p.r(G)p.m(G)p.r(U)p.m(G)p.r(A)p.m(C)p.r(A)p.m(A)p.r(A)p.m(G)p.r(A)p.m(G)p.r(C)p.m(U)p.r(T)p.r(T)}$$$RNA1{StrandType:ss}|RNA2{StrandType:as}$”, 19%; that for “RNA1{r(U)p.r(C)p.r(C)p.r(U)p.r(C)p.r(G)p.r(U)p.r(C)p.r(G)p.r(U)p.r(C)p.r(U)p.r(G)p.r(U)p.r(U)p.r(C)p.m(U)p.r(A)p.r(A)p.r(T)p.r(T)}|RNA2{r(U)p.m(U)p.r(A)p.r(G)p.r(A)p.r(A)p.r(C)p.r(A)p.r(G)p.r(A)p.r(C)p.r(G)p.r(A)p.r(C)p.r(G)p.r(A)p.r(G)p.r(G)p.r(A)p.r(T)p.r(T)}$$$RNA1{StrandType:ss}|RNA2{StrandType:as}$”, 84%.
“RNA1{[s4r](A)p.[s4r](A)p.[s4r](A)p.[s4r](C)p.r(A)p.r(U)p.r(G)p.r(C)p.r(A)p.r(G)p.r(A)p.r(A)p.r(A)p.r(A)p.r(U)p.r(G)p.r(C)p.r(U)p.r(G)p.r(T)p.r(T)}|RNA2{[s4r](C)p.[s4r](A)p.r(G)p.r(C)p.r(A)p.r(U)p.r(U)p.r(U)p.r(U)p.r(C)p.r(U)p.r(G)p.r(C)p.r(A)p.r(U)p.r(G)p.r(U)p.[s4r](U)p.[s4r](U)p.r(T)p.r(T)}$$$RNA1{StrandType:ss}|RNA2{StrandType:as}$”: the target mRNA knockdown amounted to 60.2%.
As for “RNA1{m(C)p.r(A)p.r(G)p.r(A)p.r(G)p.m(C)p.r(A)p.r(A)p.m(U)p.m(U)p.r(G)p.m(U)p.m(U)p.m(U)p.r(A)p.m(C)p.m(C)p.m(U)p.r(A)p.r(T)p.r(T)}|RNA2{m(U)p.r(A)p.r(G)p.r(G)p.m(U)p.r(A)p.r(A)p.r(A)p.m(C)p.r(A)p.r(A)p.m(U)p.m(U)p.r(G)p.m(C)p.m(U)p.m(C)p.r(U)p.r(G)p.r(T)p.r(T)}$$$RNA1{StrandType:ss}|RNA2{StrandType:as}$”, the target mRNA knockdown is 75%.
The result for “RNA1{r(A)p.r(A)p.r(A)p.r(C)p.r(G)p.r(U)p.r(G)p.r(A)p.r(C)p.r(U)p.r(U)p.m(U)p.r(G)p.r(G)p.r(U)p.r(U)p.r(C)p.r(C)p.r(U)p.r(T)p.r(T)}|RNA2{r(A)p.r(G)p.r(G)p.r(A)p.r(A)p.r(C)p.r(C)p.r(A)p.r(A)p.r(A)p.r(G)p.r(U)p.m(C)p.r(A)p.r(C)p.r(G)p.r(U)p.r(U)p.r(U)p.r(T)p.r(T)}$$$RNA1{StrandType:ss}|RNA2{StrandType:as}$” reads 83%.
